Assay results taken from patent publication US20110053892A1, “Imidazo[4,5-d]Pyridazine Compounds For Treating Viral Infections” (priority 2009, published 2011).

These molecules were tested on HCV Genotype 1B replicon cells. Conditions: Table 3; cytotoxicity, cell titer glo.
Format: cell-based
Text: The genotype 1a replicon contains several adaptive mutations (NS4B Q31H, NS5A K68R, NS5A S232I), the luciferase gene and encodes for neomycin resistance. The genotype 1b replicon, also referred to as the ET replicon, is stably transfected with RNA transcripts harboring a I389luc-ubi-neo/NS3-3′/ET replicon with firefly luciferase-ubiquitin-neomycin phosphotransferase fusion protein and EMCV-IRES driven NS3-5B polyprotein containing the cell culture adaptive mutations (E1202G; T1280I; K1846T) See, Kreiger, et al., Journal of Virology 75:4614-4624 (2001). Both cell lines were grown in DMEM, supplemented with 10% fetal calf serum, 2 mM Glutamine, Penicillin (100 IU/mL)/Streptomycin (100 μg/mL), 1× nonessential amino acids, and 250 μg/mL G418 (“Geneticin”). They were all available through Life Technologies (Bethesda, Md.). The cells were plated at 0.5×10^4 cells/well in 384 well plates containing compounds. The final concentration of compounds ranged between 0.1 nM to 50 μM and the final DMSO concentration of 0.5%.
Luciferase activity was measured 48 hours later by adding a Steady glo (Promega, Madison, Wis.). Percent inhibition of replication data was plotted relative to no compound control. Under the same condition, cytotoxicity of the compounds was determined using cell titer glo (Promega, Madison, Wis.). EC50 values were determined from a 10 point dose response curve using 2-4 fold serial dilutions for each compound, which spans a concentration range of at least a 1000 fold. Replicon EC50 values, the concentration of compound required to inhibit 50% of the assay response, were calculated by curve fitting data to the Hill equation, using a non-linear least-squares curve-fitting program. The software tested the data for quality and rejected compounds with high and low activity before fitting the equation below.

SMILES | CC50 [µM]
CCCOC(=O)C(c1cc(-c2ccc(C3CC3)cc2C(F)(F)F)no1)n1cc2nc(-c3cccc(F)c3F)nc-2cn1 (stereo not shown) [Compound 184, Propyl {3-[4-cyclopropyl-2-(trifluoromethyl)phenyl]-5-isoxazolyl}[2-(2,3-difluorophenyl)-5H-imidazo[4,5-d]pyridazin-5-yl]acetate] | 25
O=C(OCCOCCO)C(c1cc(-c2ccc(C3CC3)cc2C(F)(F)F)no1)n1cc2nc(-c3cccc(F)c3F)nc-2cn1 (stereo not shown) [Compound 179, 2-[(2-hydroxyethyl)oxy]ethyl {3-[4-cyclopropyl-2-(trifluoromethyl)phenyl]-5-isoxazolyl}[2-(2,3-difluorophenyl)-5H-imidazo[4,5-d]pyridazin-5-yl]acetate] | 50
COC(=O)C(c1cc(-c2ccc(C3CC3)cc2C(F)(F)F)no1)n1cc2nc(-c3cccc(F)c3F)nc-2cn1 (stereo not shown) [Compound 178, Methyl {3-[4-cyclopropyl-2-(trifluoromethyl)phenyl]-5-isoxazolyl}[2-(2,3-difluorophenyl)-5H-imidazo[4,5-d]pyridazin-5-yl]acetate] | 25
O=C(OCCCO)C(c1cc(-c2ccc(C3CC3)cc2C(F)(F)F)no1)n1cc2nc(-c3cccc(F)c3F)nc-2cn1 (stereo not shown) [Compound 182, 3-Hydroxypropyl {3-[4-cyclopropyl-2-(trifluoromethyl)phenyl]-5-isoxazolyl}[2-(2,3-difluorophenyl)-5H-imidazo[4,5-d]pyridazin-5-yl]acetate] | > 50
